Test results reported in patent US6159705A, “Recombinant yeast cells for identifying receptor effectors” (Cadus Pharmaceutical Corporation, priority 1997, dated 2000).

Columns and labels:
[1] = tested on: FPRL-1; details: uM concentrations; cited from earlier work
[2] = biological target: T1, Ste2p (Saccharomyces cerevisiae, UniProt D6VTK4); assay: Pho5p acid phosphatase activity in strains with PHO4/STE12 chimerae (Ste2p activation); format: cell-based, S. cerevisiae
T1 construct: CY 1638 (MATa far1*1442 tbt1-1 FUS1-HIS3 trp1ura3 leu2 his3 suc2); endogenous in cells; host or cells: S. cerevisiae CY 11643 (MATa, pho3 and pho4 disrupted, from CY 1638 via CY 9788), carrying PHO4/STE12 chimera plasmids or Cadus 4129
T1 sequence (D6VTK4 1-431): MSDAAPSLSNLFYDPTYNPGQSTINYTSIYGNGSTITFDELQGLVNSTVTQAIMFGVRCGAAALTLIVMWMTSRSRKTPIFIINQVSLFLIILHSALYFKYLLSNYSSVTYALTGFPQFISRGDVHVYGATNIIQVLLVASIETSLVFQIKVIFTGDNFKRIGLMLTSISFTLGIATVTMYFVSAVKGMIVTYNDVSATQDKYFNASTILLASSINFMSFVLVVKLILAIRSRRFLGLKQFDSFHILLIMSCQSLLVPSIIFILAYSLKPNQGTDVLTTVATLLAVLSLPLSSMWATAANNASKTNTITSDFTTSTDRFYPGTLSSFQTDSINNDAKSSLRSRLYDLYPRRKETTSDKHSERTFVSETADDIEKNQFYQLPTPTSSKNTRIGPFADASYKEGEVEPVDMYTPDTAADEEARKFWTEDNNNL
Procedure: were used to amplify the KanMX2 gene. The amplification product was flanked by sequences corresponding to the 5' and 3' ends of the PHO4 gene. […] Transformants were selected on YEPD+geneticin (200 μg/ml) plates. […] Cells were patched onto YEPD or phosphate-depleted YEPD plates and allowed to grow overnight. For each plate, a mixture of 2 ml of molten 1% agarose in 50 mM NaAc pH 4.0, 700 μl H2 O, and 300 μl α-napthyl acid phosphate (50 mg/ml) was prepared and applied to the plate. Then 1 ml of D-dianisidine fast blue salt B (50 mg/ml in 50 mM NaAc pH 4.0) was poured onto the plate. The degree of color development is a measure of acid phosphatase activity produced by the patch of cells.
The PHO3 gene also encodes a secreted acid phosphatase, but its expression is not regulated by Pho4p. […] Since this gene is not essential and its presence would require that all assays be done under conditions of phosphate starvation, it was disrupted. Primers
were used to amplify sequences in the 3' untranslated region of the PHO3 gene. The amplification product which bears an EcoRI site ate its 5' end and an XbaI site at its 3' end was digested with EcoRI and XbaI and gel purified.
Cells were grown overnight in SD TRP- media. […] The cultures were split in half (2.5 ml each) and α-factor (25 μg) was added to one aliquot. After 2.5 hours at 30° C., the cells were collected by centrifugation, washed 3 times with H2 O, once with 50 mM NaAc pH 4.0, and resuspended in 250 μl 50 mM NaAc pH 4.0. […] 100 μl cells were added to 400 μl p-nitrophenyl phosphate (1 mg/ml in 50 mM NaAc pH 4.0). After 15 min at room temperature, 720 μl saturated NaCO3 was added to stop the reaction. The cells were removed by centrifugation and the optical density at 420 nm was determined.

[3] = biological target: T2, S. cerevisiae pheromone receptor, Ste2p (Saccharomyces cerevisiae, UniProt D6VTK4); assay: Bar1 plate assay, agonist-induced Ste2p activation; format: cell-based
T2 sequence (D6VTK4 1-431): T1 sequence (D6VTK4 1-431)
Procedure: The cells were removed from the culture by filtration.
Assay plates were prepared as follows. CY 579 cells were grown overnight in YEPD medium.
Since CY 579 lacks the BAR1 gene, it is super-sensitive to α-factor causing its growth to be arrested on the YEPD+α-factor plate. If the conditioned media applied to the lawn contains Bar1p activity, the α-factor in that region is destroyed, allowing growth of the CY 579 cells.
First, the gene encoding the S. cerevisiae Gα, GPA 1, was reintroduced into the genome of CY 8034 (MATa gpa1*1162 far1-1 ste2*1154 ste14::trp1::LYS2 fus1-HIS3 ura3 trp1 leu2 lys2 his3 ade2-1 met1) by transformation with an integrating plasmid encoding GPA1 (Cadus 3907), creating CY 11364. Next, the gene encoding the S. cerevisiae RGS protein, SST2, was disrupted in this strain to create CY 11645. Since Sst2p is involved in desensitization of the pheromone response pathway, its disruption results in increased signaling through the pathway (Reviewed by Sprague and Thorner in Molecular and Cellular Biology of the Yeast Saccharomyces. Vol. 2. 1992).
A high copy number Ste2 expression plasmid was constructed as follows. […]
(to OD600 0.4). […] A standard curve was also done with each experiment (described in Example 1) to quantitate the results.

[4] = biological target: C5a receptor; details: data derived from mammalian cells; read-out: binding constant of C5a to its receptor; cited from earlier work
[5] = tested on: human C5a receptor; assay: Autocrine activation, fus1-lacZ beta-galactosidase; format: cell-based; details: R+L+ cells
Procedure: CY878 (MATα tbt1-1 fus1-HIS3 caN1 ste14::trp1::LYS2 ste3* 1156 gpal(41)-Gαi2) was used as the starting strain for these experiments. This strain is a trp1 derivative of CY455. The transformants for this experiment contained CADUS 1584 (pRS424-fus1-lacZ) in addition to the receptor and ligand plasmids. Four strains were grown overnight in SD LEU URA TRP pH6.8 with 50 mM PIPES to an OD600 of less than 0.8. Assay of β-galactosidase activity can be done useing methods known in the art (Guarente 1983).

[6] = tested on: human C5a receptor; assay: Autocrine activation of pheromone pathway, growth read-out (fus1-HIS3); format: cell-based
Source text: The strain used for this analysis, CY455 (MATα tbt1-1 ura3 leu2 trp1 his3 fus1-HIS3 can1 ste14::TRP1 ste3* 1156) contains the following significant modifications. A pheromone inducible HIS3 gene, fus1-HIS3, is integrated at the Fus1 locus. A hybrid gene containing sequence encoding the first 41 amino acids of GPA1 (the yeast Gα subunit) fused to sequence encoding human Gαi2a (minus codons for the N-terminal 33 amino acids) replaces GPA1 at its normal chromosomal location. The yeast STE14 gene is disrupted to lower the basal level of signaling through the pheromone response pathway. The yeast a-factor receptor gene, STE3, is deleted. The last two modifications are probably not essential, but appear to improve the signal-to-noise ratio.
CY455 (MATα tbt1-1 ura3 leu2 trp1 his3 fus1-HIS3 can1 ste14::TRP1 ste3 * 1156) was transformed with the following plasmids:
Cadus 1303+Cadus 1297=Receptor^+ Ligand^+ =(R+L+)
Three colonies were picked from each transformation and grown overnight in media lacking leucine and uracil, at pH 6.8 with 25 mM PIPES (LEU URA pH6.8 with 25 mM PIPES). This media was made by adding 0.45 ml of sterile 1 M KOH and 2.5 ml of sterile 1M PIPES pH 6.8 to 100 ml of standard SD LEU- URA- media. […] The optical density at 600 nm of a 1/20 dilution of these cultures was determined and the cultures were diluted into 25 mM PIPES pH 6.8 to a final OD600 of 0.2. […]

[7] = tested on: induced HL60 cells; assay: Competition with radiolabeled C5a for binding on induced HL60 cells; details: C5a expressed in yeast

For `CSCC[C@H](NC=O)C(=O)N[C@@H](CC(C)C)C(=O)N[C@@H](Cc1ccccc1)C(=O)O` [f-Met-Leu-Phe], the “binding to fibroblasts transfected with FPRL-1 cDNA” value [1] is given as “weak binding”.

In the case of α-factor, the “acid phosphatase activity inducible by pheromone” value ([2]; all strains expressing Pho4/Ste12 chimerae) is reported as “pheromone-inducible acid phosphatase activity was observed”, the “change of acid phosphatase activity on exposure to α-factor” value ([2]; cells expressing only the Pho4p DNA binding domain (CY11643+Cadus 4129)) is reported as “not increased by exposure to α-factor” and the Pho5p induction ratio ([2]; other chimerae with very low constitutive activity) is reported as 5-10 fold. The Pho5p induction ratio ([2]; two chimerae with high constitutive activity (printed Cadus 4184 and Cadus 4185)) was 2-4 fold, the “increase in Bar1p activity” value ([3]; cells expressing Ste2p (CY 11728), α-factor 10 μg, 2 h, 30° C.) was “greater than 8 fold” and the “Bar1p activity in conditioned media” value ([3]; cells lacking the Ste2p expression plasmid (CY 11727)) was “Little or no Bar1p activity was detected”.

B1: C5a: Human C5a is a 74 amino acid polypeptide that derives from the fifth component of complement (protein, UniProt P01031 678-751, looked up)
C5a anaphylatoxin: TLQKKIEEIAAKYKHSVVKKCCYDGACVNNDETCEQRAARISLGPRCIKAFTECCVVASQLRANISHKDMQLGR
modifications: C5a anaphylatoxin
notes: Human C5a is a 74 amino acid polypeptide that derives from the fifth component of complement
For B1, the Kd [4] is given as 1 nM, the “autocrine stimulation and β-galactosidase activity” value [5] is given as “results in autocrine stimulation and β-galactosidase activity” and the “growth on selective plates lacking histidine” value ([6]; R+L+ strain, C5a expressed by the cell) is given as “show growth on the selective plates”. The “aminotriazole concentration up to which the R+L+ strain will grow” value ([6]; highest concentration tested) was “up to 5 mM” and the “competition for binding with radiolabeled C5a” value [7] was “shown to compete for binding”.
